In patent US12358999B2, “Protein recognizing drug moiety of antibody-drug conjugate” (DAIICHI SANKYO COMPANY, LIMITED, priority 2018, dated 2025):
Counter-ions that a name gives are not always drawn.

Legend:
mouse antibody 1A3 = assay: Competitive inhibition with HER2-ADC (I), chemical structure recognized by mouse antibody 1A3 (Gyrolab); type: binding; conditions: compound 1 and 100 μg/mL dilution solutions; response at HER2-ADC (I) 250 ng/mL
Excerpt: The chemical structure to be recognized by mouse antibody 1A3 was checked by competitive inhibition with HER2-ADC (I) using Gyrolab xP workstation (GYROS PROTEIN Technologies). As the compound for use in competitive inhibition, compound (1), compound (2), compound (7), compound (8), compound (9), compound (10), compound (11), Topotecan and Rubitecan were selected.
As the capture reagent, mouse antibody 1A3 labeled with biotin by a labeling kit (ChromaLink Biotin Protein LABELING Kit, Solulink) was used. The concentration thereof was controlled to be 700 nM with 0.1% PS20-containing PBS. The compounds for use in competitive inhibition, compound (1), compound (2), compound (7), compound (8), compound (9), compound (10), compound (11), Topotecan and Rubitecan were separately dissolved in DMSO. The solutions each was diluted with 10% or 20% DMSO in Rexxip HN (GYROS PROTEIN Technologies) to prepare 0, 1 and 100 μg/mL dilution solutions. To each of them, the 700 nM mouse antibody 1A3 solution was added in an equal amount. The mixture was stirred and allowed to react at room temperature in a dark place for one hour or more. The concentration of HER2-ADC (I) was controlled with Rexxip HN to be 0, 0.244, 0.977, 3.91, 15.6, 62.5, 250 and 1000 ng/mL. As the detection reagent, Mouse Anti-(Anti-HER2 Ab) idiotype Ab (13C1) (IBL) was labeled by DyLight650 (registered trademark) labeling kit and put in use. The concentration thereof was controlled with Rexxip F (GYROS PROTEIN Technologies) to be 10 nM. The above solution was set at Gyrolab xP workstation and measurement was carried out by use of Gyrolab Bioaffy 200 at 200-3W-002-A (PMT5). The regression analysis was carried out by use of Gyrolab Evaluator 3.4.0.24 in 4-parametric logistic model (weight: Response). The calibration curve of HER2-ADC (I) was prepared per concentration of the competitive inhibition compound. The inhibition rate (%) was calculated by comparing the response at an HER2-ADC (I) concentration of 250 ng/mL to that of the case where no compound was added (concentration 0 ng/mL).

[1] = test system: sera of BALB/c mice and BDF1 mice after immunization; assay: Inhibition ELISA of immunized mouse sera on immobilized antigen protein (2); type: binding; conditions: sera diluted 50000 fold; compound 12.5-100 μg/mL
Protocol: To the sera of BALB/c mice (4 individuals) and BDF1 mice (4 individuals) after immunization through four administrations, compound (6), compound (7) and compound (1) as positive controls and compound (8) as a negative control were added and the unabsorption rate to antigen protein (2) was calculated. The mouse sera diluted to 50000 fold and compound (6), compound (8), compound (7) and compound (1), which were prepared to have a concentration of 12.5, 25, 50 and 100 μg/mL, were mixed and allowed to react at 4° C. overnight, and then, added to ELISA immunoplates having the antigen protein (2) immobilized thereon and allowed to react at 37° C. for 30 minutes. After washing, anti-mouse IgG-HRP was allowed to react at 37° C. for 30 minutes. After washing, an OPD solution was added. After termination of color development, absorbance at 490 nm was measured. The unabsorption rate was calculated in accordance with the following expression: Unabsorption rate(%)=(a/b)×100
a: Absorbance of positive control or negative control at an addition concentration of 12.5 μg/mL
b: Absorbance of a sample not containing positive control or a sample not containing a negative control

| SMILES | competitive inhibition of recognition of mouse antibody 1A3 to HER2-ADC (I) (inhibition rate, FIG. 41) (mouse antibody 1A3) | inhibition effect on binding of mouse sera to antigen protein (2) (unabsorption rate) [1] |
| --- | --- | --- |
| CC[C@@]1(O)C(=O)OCc2c1cc1n(c2=O)Cc2cc3c([N+](=O)[O-])cccc3nc2-1 [Rubitecan] | did not exhibit competitive inhibition |  |
| CC[C@@]1(O)C(=O)OCc2c1cc1n(c2=O)Cc2cc3c(CN(C)C)c(O)ccc3nc2-1 [Topotecan] | did not exhibit competitive inhibition |  |
| CC[C@@]1(O)C(=O)OCc2c1cc1n(c2=O)Cc2c-1nc1cc(F)c(C)c3c1c2[C@@H](NC(=O)CCCNC(=O)CCCCCCC(=O)ON1C(=O)CCC1=O)CC3 [compound (6), 8-[(2,5-dioxopyrrolidin-1-yl)oxy]-N-(4-{[(1S,9S)-9-ethyl-5-fluoro-9-hydroxy-4-methyl-10,13-dioxo-2,3,9,10,13,15-hexahydro-1H,12H-benzo[de]pyrano[3′,4′:6,7]indolizino[1,2-b]quinolin-1-yl]amino}-4-oxobutyl)-8-oxooctane Amide] |  | high inhibition effect |
| CC[C@]1(O)c2cc3n(c(=O)c2COC1O)Cc1c-3nc2cc(F)c(C)c3c2c1[C@@H](NC(=O)CCCN)CC3 (stereo partly drawn) [compound (7), 4-amino-N-[(1S,9S)-9-ethyl-5-fluoro-9,10-dihydroxy-4-methyl-13-oxo-2,3,9,10,13,15-hexahydro-1H,12H-benzo[de]pyrano[3′,4′:6,7]indolizino[1,2-b]quinolin-1-yl] butanamide Trifluoroacetate] | strong competitive inhibition | in some individuals have a high inhibition effect |
| NCCCC(=O)NC1CCCCC1 [compound (8), 4-amino-N-cyclohexyl-butanamide Hydrochloride] | did not exhibit competitive inhibition | in none of the plasmas, a high inhibition effect |
| CC[C@@]1(O)C(=O)OCc2c1cc1n(c2=O)Cc2c-1nc1ccc(C)c3c1c2CCC3 [compound (9)] | strong competitive inhibition |  |
| CC[C@@]1(O)C(=O)OCc2c1cc1n(c2=O)Cc2c-1nc1cccc3c1c2C(N)CC3 (stereo partly shown) [compound (10)] | did not exhibit competitive inhibition |  |
| CC[C@@]1(O)C(=O)OCc2c1cc1n(c2=O)Cc2c-1nc1cc(F)c(CO)c3c1c2[C@@H](N)CC3 [compound (11)] | did not exhibit competitive inhibition |  |
